Assay results: patent US10703765B2 (priority 2014, dated 2020)
Counter-ions that a name gives are not always drawn.

Each compound was assayed against human σ1 receptor (Homo sapiens, UniProt Q99720) (assay: biochemical). Conditions: not given.
Format: binding
Design: μ and σ1 dual binding: key to the marks not given beside the values

Chain of human σ1 receptor (Q99720 whole entry): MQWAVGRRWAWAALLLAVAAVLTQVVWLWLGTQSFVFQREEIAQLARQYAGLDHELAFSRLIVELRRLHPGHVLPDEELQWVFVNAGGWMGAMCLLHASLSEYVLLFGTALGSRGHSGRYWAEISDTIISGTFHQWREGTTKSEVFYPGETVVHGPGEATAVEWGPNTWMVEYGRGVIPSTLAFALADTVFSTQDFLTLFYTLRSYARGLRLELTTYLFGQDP

SMILES	μ and σ1 dual binding	Ki [nM]
Cc1cc(C)n(CCN2CCC3(CC2)CN(c2ccccc2)C(=O)C(C)O3)n1.Cl (stereo not drawn) [Example 77, 9-(2-(3,5-dimethyl-1H-pyrazol-1-yl)ethyl)-2-methyl-4-phenyl-1-oxa-4,9-diazaspiro[5.5]undecan-3-one hydrochloride]	++	
O=C1C(=CC2CCOCC2)OC2(CCN(CCc3ccccc3)CC2)CN1c1ccccc1F [Example 80, 4-(2-fluorophenyl)-9-phenethyl-2-((tetrahydro-2H-pyran-4-yl)methylene)-1-oxa-4,9-diazaspiro[5.5]undecan-3-one]		< 500
CC(C)CCN1CCC2(CC1)CN(c1ccccc1F)C(=O)C(C)O2.Cl (stereo not drawn) [Example 81, 4-(2-fluorophenyl)-9-isopentyl-2-methyl-1-oxa-4,9-diazaspiro[5.5]undecan-3-one hydrochloride]	++	
COc1cccc(CCN2CCC3(CC2)CN(c2ccccc2F)C(=O)C(C)O3)c1 (stereo not drawn) [Example 83, 4-(2-fluorophenyl)-9-(3-methoxyphenethyl)-2-methyl-1-oxa-4,9-diazaspiro[5.5]undecan-3-one hydrochloride]		< 100
CC1OC2(CCN(CCc3ccccc3)CC2)CN(c2cscn2)C1=O (stereo not drawn) [Example 88, 2-methyl-9-phenethyl-4-(thiazol-4-yl)-1-oxa-4,9-diazaspiro[5.5]undecan-3-one hydrochloride]		< 500
CC1OC2(CCN(CCc3cccc(F)n3)CC2)CN(c2ccccc2F)C1=O (stereo not drawn) [Example 89, 4-(2-fluorophenyl)-9-(2-(6-fluoropyridin-2-yl)ethyl)-2-methyl-1-oxa-4,9-diazaspiro[5.5]undecan-3-one hydrochloride]		< 500
CNS(=O)(=O)c1cccc(CCN2CCC3(CC2)CN(c2ccccc2)C(=O)C(C)O3)c1 (stereo not drawn) [Example 93, N-methyl-3-(2-(2-methyl-3-oxo-4-phenyl-1-oxa-4,9-diazaspiro[5.5]undecan-9-yl)ethyl)benzenesulfonamide]		< 500
CC1OC2(CCN(CCc3ccc(F)cn3)CC2)CN(c2ccccc2)C1=O (stereo not drawn) [Example 94, 9-(2-(5-fluoropyridin-2-yl)ethyl)-2-methyl-4-phenyl-1-oxa-4,9-diazaspiro[5.5]undecan-3-one hydrochloride]		< 500
CC1OC2(CCN(CCc3nccs3)CC2)CN(c2ccccc2)C1=O (stereo not drawn) [Example 95, 2-methyl-4-phenyl-9-(2-(thiazol-2-yl)ethyl)-1-oxa-4,9-diazaspiro[5.5]undecan-3-one hydrochloride]		< 500
CC1OC2(CCN(CCc3ncccc3F)CC2)CN(c2ccccc2)C1=O (stereo not drawn) [Example 96, 9-(2-(3-fluoropyridin-2-yl)ethyl)-2-methyl-4-phenyl-1-oxa-4,9-diazaspiro[5.5]undecan-3-one hydrochloride]		< 500
CC1OC2(CCN(CCc3ccccn3)CC2)CN(c2cnccc2C(F)(F)F)C1=O.Cl (stereo not drawn) [Example 101, 2-methyl-9-(2-(pyridin-2-yl)ethyl)-4-(4-(trifluoromethyl)pyridin-3-yl)-1-oxa-4,9-diazaspiro[5.5]undecan-3-one hydrochloride]	++	
COc1cccc(CCN2CCC3(CC2)CN(c2ccccc2)C(=O)C(C)O3)n1 (stereo not drawn) [Example 102, 9-(2-(6-methoxypyridin-2-yl)ethyl)-2-methyl-4-phenyl-1-oxa-4,9-diazaspiro[5.5]undecan-3-one hydrochloride]		< 500

Same assay, conditions: combined class from Ki-σ1 (human σ1 receptor, A1) and Ki-μ (human μ-opioid receptor, A2) radioligand binding

SMILES	μ and σ1 dual binding
O=C1COC2(CCN(CCc3ccccn3)CC2)CN1Cc1ccccn1 [Example 84, 9-(2-(pyridin-2-yl)ethyl)-4-(pyridin-2-ylmethyl)-1-oxa-4,9-diazaspiro[5.5]undecan-3-one]	++

Same assay, conditions: read-out: μ and σ1 dual binding

SMILES	Ki [nM]
CC1OC2(CCN(CC(=O)N3CCOCC3)CC2)CN(c2ccccc2)C1=O (stereo not drawn) [Example 78, 2-methyl-9-(2-morpholino-2-oxoethyl)-4-phenyl-1-oxa-4,9-diazaspiro[5.5]undecan-3-one hydrochloride]	> 500
COc1ccccc1CCN1CCC2(CC1)CN(Cc1ccccn1)C(=O)CO2 [Example 79, 9-(2-methoxyphenethyl)-4-(pyridin-2-ylmethyl)-1-oxa-4,9-diazaspiro[5.5]undecan-3-one]	< 500
CC1OC2(CCN(CC3CC3)CC2)CN(c2ccccc2F)C1=O (stereo not drawn) [Example 82, 9-(cyclopropylmethyl)-4-(2-fluorophenyl)-2-methyl-1-oxa-4,9-diazaspiro[5.5]undecan-3-one hydrochloride]	> 500
CC(C)=C1OC2(CCN(CCc3ccccc3)CC2)CN(c2ccccc2F)C1=O [Example 85, 4-(2-fluorophenyl)-9-phenethyl-2-(propan-2-ylidene)-1-oxa-4,9-diazaspiro[5.5]undecan-3-one]	> 500
O=C1COC2(CCN(CCc3ccccc3)CC2)CN1Cc1ccccn1 [Example 86, 9-phenethyl-4-(pyridin-2-ylmethyl)-1-oxa-4,9-diazaspiro[5.5]undecan-3-one hydrochloride]	< 100
COc1ccccc1CCN1CCC2(CC1)CN(Cc1ccccc1)CCO2 [Example 87, 4-benzyl-9-(2-methoxyphenethyl)-1-oxa-4,9-diazaspiro[5.5]undecane dihydrochloride]	> 500
O=C1N(c2ccccc2)CC2(CCN(CCc3ccccn3)CC2)OC12CC2 [Example 90, 12-phenyl-8-[2-(pyridin-2-yl)ethyl]-4-oxa-8,12-diazaspiro[2.1.5.3]tridecan-13-one]	< 100
CC1OC2(CCN(CCc3ccc(C(F)(F)F)nc3)CC2)CN(c2ccccc2F)C1=O (stereo not drawn) [Example 91, 4-(2-fluorophenyl)-2-methyl-9-(2-(6-(trifluoromethyl)pyridin-3-yl)ethyl)-1-oxa-4,9-diazaspiro[5.5]undecan-3-one dihydrochloride]	< 500
O=C1N(c2ccccc2)CC2(CCN(CCc3cccc([N+](=O)[O-])c3)CC2)OC12CC2 [Example 92, 8-(3-nitrophenethyl)-12-phenyl-4-oxa-8,12-diazaspiro[2.1.5.3]tridecan-13-one]	> 500
O=C(CN1CCC2(CC1)CN(c1ccccc1)C(=O)C1(CC1)O2)c1ccccc1 [Example 97, 8-(2-oxo-2-phenylethyl)-12-phenyl-4-oxa-8,12-diazadispiro[2.1.5.3]tridecan-13-one]	> 500
O=C1COC2(CCN(CCc3ccccn3)CC2)CN1Cc1ccc(C(F)(F)F)cn1 [Example 98, 9-(2-(pyridin-2-yl)ethyl)-4-((5-(trifluoromethyl)pyridin-2-yl)methyl)-1-oxa-4,9-diazaspiro[5.5]undecan-3-one hydrochloride]	< 500
O=C(CN1CCC2(CC1)CN(Cc1ccc(C(F)(F)F)cn1)C(=O)CO2)c1ccccc1 [Example 99, 9-(2-oxo-2-phenylethyl)-4-((5-(trifluoromethyl)pyridin-2-yl)methyl)-1-oxa-4,9-diazaspiro[5.5]undecan-3-one]	> 500
CC1OC2(CCN(CCC(=O)N(C)c3ccccc3)CC2)CN(c2ccccc2)C1=O (stereo not drawn) [Example 100, N-methyl-3-(2-methyl-3-oxo-4-phenyl-1-oxa-4,9-diazaspiro[5.5]undecan-9-yl)-N-phenylpropanamide hydrochloride]	< 500
O=C1COC2(CCN(CCc3cccc([N+](=O)[O-])c3)CC2)CN1Cc1ccc(C(F)(F)F)cn1 [Example 103, 9-(3-nitrophenethyl)-4-((5-(trifluoromethyl)pyridin-2-yl)methyl)-1-oxa-4,9-diazaspiro[5.5]undecan-3-one]	> 500
